Laboratory results from US11952383B1, “Aza-podophyllotoxin analogues as potential anti-cancer agents” (KING FAISAL UNIVERSITY, priority 2023, dated 2024).
Where two headings read alike, the source gives them in different places.

Columns and labels:
[1] = system: HL-60 (leukemia); experiment: In vitro cytotoxic activity MTT assay, HL-60; assay type: cell-based, human
Experimental: (§1) The cytotoxicity activity of the compounds of the current subject matter was assessed against three cancer cell lines such as A-549 (lung cancer), MCF-7 (breast cancer) and HL-60 (leukemia) cancer cells.
(§2) Compounds 1-15 were screened for their in vitro cytotoxic behavior utilizing a 3-(4,5-dimethyl-thiazol-2-yl)-2,5-diphenyltetrazolium bromide (MTT) assay against selected cancer human cell lines consisting of MCF-7 (human breast cancer), A-549 (lung cancer) and HL-60 (leukemia) (T. Mosmann, J. Immunol. Meth., 1983, 65, 55-63). The cells were cultured at 37° C. in RMPI1640 medium supplemented with 10% fetal bovine serum, 50 IU/mL penicillin, and 50 μg/mL streptomycin in a 5% CO2 incubator. All cells were sub-cultured 3 times/week by trypsinisation. Viable cells were seeded and allowed to adhere for 12 h before a test drug was added in 96-well plates at an initial density of 1.0×10^5 cells/mL. Tumour cell lines were separately exposed to various concentrations of the tested compounds followed by incubation at a temperature of 37° C. during 24 h inside a medium of fresh RMPI 1640. Cells were subsequently incubated at 37° C. using MTT at 0.5 mg/mL during 4 h. After removal of supernatant, formazan crystals were dissolved in isopropanol and the optical density was measured at 570 nm. Etopside and Cisplatin were used as a positive control.

[2] = system: A-549 (lung cancer); experiment: In vitro cytotoxic activity MTT assay, A-549; assay type: cell-based, human
Experimental: as §1, §2

[3] = system: MCF-7 (human breast cancer); experiment: In vitro cytotoxic activity MTT assay, MCF-7; assay type: cell-based
Experimental: as §1, §2

[4] = HL-60 leukemia cells, MTT, 24 h incubation, read-out: Anti-proliferative activity: IC50 (μM) HL-60
[5] = A-549 lung cancer cells, MTT, 24 h incubation, read-out: Anti-proliferative activity: IC50 (μM) A-549
[6] = MCF-7 breast cancer cells, MTT, 24 h incubation, read-out: Anti-proliferative activity: IC50 (μM) MCF-7
[7] = Homo sapiens, HL-60 leukemia cells, MTT, 24 h incubation, read-out: Anti-proliferative activity: IC50 (μM) HL-60
[8] = Homo sapiens, A549, A-549 lung cancer cells, MTT, 24 h incubation, read-out: Anti-proliferative activity: IC50 (μM) A-549
[9] = Homo sapiens, MCF7, MCF-7 breast cancer cells, MTT, 24 h incubation, read-out: Anti-proliferative activity: IC50 (μM) MCF-7

SMILES | IC50 [1, 4] [µM] | IC50 [2, 5] [µM] | IC50 [3, 6] [µM] | IC50 [1, 7] [µM] | IC50 [2, 8] [µM] | IC50 [3, 9] [µM] | IC50 ([1]; Homo sapiens, HL-60 cancer cells, read-out: IC50 (concentration of cytotoxic agent which inhibits proliferation of the treated cells by 50%) against HL-60) [µM] | IC50 ([2]; Homo sapiens, A549, A-549 cancer cells, read-out: IC50 (concentration of cytotoxic agent which inhibits proliferation of the treated cells by 50%) against A-549) [µM] | IC50 ([3]; Homo sapiens, MCF7, MCF-7 cancer cells, read-out: IC50 (concentration of cytotoxic agent which inhibits proliferation of the treated cells by 50%) against MCF-7) [µM]
N.N.[Cl][Pt][Cl] [Cisplatin, reference compound] | 1.16 | 9.25 | 15.9 | – | – | – | – | – | –
COc1cc([C@@H]2c3cc4c(cc3[C@@H](O[C@@H]3O[C@@H]5CO[C@@H](C)O[C@H]5[C@H](O)[C@H]3O)[C@H]3COC(=O)[C@H]23)OCO4)cc(OC)c1O [Etoposide, reference compound] | 0.31 | 11.9 | 32.8 | – | – | – | – | – | –
COc1ccc(C2C3=C(COC3=O)Nc3nc4ccccc4n32)cc1 (stereo not drawn) [Example 1, 11-(4-methoxyphenyl)-4,11-dihydro-1H,3H-benzo[4,5]imidazo[1,2-a]furo[3,4-d]pyrimidin-1-one] | – | – | – | 0.082 | 0.092 | 0.126 | – | – | –
COc1ccc(C2C3=C(COC3=O)Nc3nc4ccccc4n32)cc1OC (stereo not drawn) [Example 2, 11-(3,4-dimethoxyphenyl)-4,11-dihydro-1H,3H-benzo[4,5]imidazo[1,2-a]furo[3,4-d]pyrimidin-1-one] | – | – | – | 0.096 | 0.12 | 0.104 | – | – | –
COc1cc(C2C3=C(COC3=O)Nc3nc4ccccc4n32)cc(OC)c1OC (stereo not drawn) [Example 3, 11-(3,4,5-trimethoxyphenyl)-4,11-dihydro-1H,3H-benzo[4,5]imidazo[1,2-a]furo[3,4-d]pyrimidin-1-one] | – | – | – | 0.128 | 0.081 | 0.115 | – | – | –
O=C1OCC2=C1C(c1ccc3c(c1)OCO3)n1c(nc3ccccc31)N2 (stereo not drawn) [Example 4, 11-(benzo[d][1,3]dioxol-5-yl)-4,11-dihydro-1H,3H-benzo[4,5]imidazo[1,2-a]furo[3,4-d]pyrimidin-1-one] | – | – | – | 0.084 | 0.104 | 0.097 | – | – | –
O=C1OCC2=C1C(c1ccc(O)c(O)c1)n1c(nc3ccccc31)N2 (stereo not drawn) [Example 5, 11-(3,4-dihydroxyphenyl)-4,11-dihydro-1H,3H-benzo[4,5]imidazo[1,2-a]furo[3,4-d]pyrimidin-1-one] | – | – | – | 0.178 | 0.151 | 0.154 | – | – | –
COc1cc(C2C3=C(COC3=O)Nc3nc4ccccc4n32)ccc1O (stereo not drawn) [Example 6, 11-(4-hydroxy-3-methoxyphenyl)-4,11-dihydro-1H,3H-benzo[4,5]imidazo[1,2-a]furo[3,4-d]pyrimidin-1-one] | – | – | – | 0.133 | 0.095 | 0.105 | – | – | –
Cc1ccc(C2C3=C(COC3=O)Nc3nc4ccccc4n32)cc1 (stereo not drawn) [Example 7, 11-(p-tolyl)-4,11-dihydro-1H,3H-benzo[4,5]imidazo[1,2-a]furo[3,4-d]pyrimidin-1-one] | – | – | – | 0.072 | 0.067 | 0.069 | – | – | –
CN(C)c1ccc(C2C3=C(COC3=O)Nc3nc4ccccc4n32)cc1 (stereo not drawn) [Example 8, 11-(4-(dimethylamino)phenyl)-4,11-dihydro-1H,3H-benzo[4,5]imidazo[1,2-a]furo[3,4-d]pyrimidin-1-one] | – | – | – | 0.129 | 0.092 | 0.087 | – | – | –
Nc1ccc(C2C3=C(COC3=O)Nc3nc4ccccc4n32)cc1 (stereo not drawn) [Example 9, 11-(4-aminophenyl)-4,11-dihydro-1H,3H-benzo[4,5]imidazo[1,2-a]furo[3,4-d]pyrimidin-1-one] | – | – | – | 0.143 | 0.123 | 0.162 | – | – | –
CC(=O)Nc1ccc(C2C3=C(COC3=O)Nc3nc4ccccc4n32)cc1 (stereo not drawn) [Example 10, N-(4-(1-oxo-4,11-dihydro-1H,3H-benzo[4,5]imidazo[1,2-a]furo[3,4-d]pyrimidin-11-yl)phenyl)acetamide] | – | – | – | 0.281 | 0.211 | 0.374 | – | – | –
COc1cc(C2C3=C(CNC3=O)Nc3nc4ccccc4n32)cc(OC)c1OC (stereo not drawn) [Example 11, 11-(3,4,5-trimethoxyphenyl)-2,3,4,11-tetrahydro-1H-benzo[4,5]imidazo[1,2-a]pyrrolo[3,4-d]pyrimidin-1-one] | – | – | – | 0.104 | 0.086 | 0.125 | – | – | –
COc1cc(C2C3=C(CSC3=O)Nc3nc4ccccc4n32)cc(OC)c1OC (stereo not drawn) [Example 12, 11-(3,4,5-trimethoxyphenyl)-4,11-dihydro-1H,3H-benzo[4,5]imidazo[1,2-a]thieno[3,4-d]pyrimidin-1-one] | – | – | – | 0.085 | 0.075 | 0.111 | – | – | –
O=C1OCC2=C1C(c1ccc(F)cc1)n1c(nc3ccccc31)N2 (stereo not drawn) [Example 13, 11-(4-fluorophenyl)-4,11-dihydro-1H,3H-benzo[4,5]imidazo[1,2-a]furo[3,4-d]pyrimidin-1-one] | – | – | – | 0.061 | 0.071 | 0.045 | 0.061 | 0.071 | 0.045
O=C1OCC2=C1C(c1ccc(Cl)cc1)n1c(nc3ccccc31)N2 (stereo not drawn) [Example 14, 11-(4-chlorophenyl)-4,11-dihydro-1H,3H-benzo[4,5]imidazo[1,2-a]furo[3,4-d]pyrimidin-1-one] | – | – | – | 0.069 | 0.058 | 0.074 | – | – | –
O=C1OCC2=C1C(c1ccc(Br)cc1)n1c(nc3ccccc31)N2 (stereo not drawn) [Example 15, 11-(4-bromophenyl)-4,11-dihydro-1H,3H-benzo[4,5]imidazo[1,2-a]furo[3,4-d]pyrimidin-1-one] | – | – | – | 0.092 | 0.105 | 0.081 | – | – | –
